# Laboratory results: PubChem BioAssay AID330 (DTP/NCI, 2004)
# Values joined by “and” are separate entries in the source; they are usually repeats but may differ in a detail not shown here. Identical values can stand only once. Toxic doses and inconclusive results are not listed.
# Tested on: P388 leukemia ip, CD2F1 mice, survival T/C
# Experiment: NCI In Vivo Anticancer Drug Screen. Data for tumor model P388 Leukemia (intraperitoneal) in CD2F1 (CDF1) mice
# Conditions: endpoint: median survival time, higher = longer survival
# Procedure, shortened: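 Mice carrying the transplanted tumor received test compound or vehicle. Survival was recorded in each group, and the value is the treated-group measurement divided by that of the vehicle-treated control group.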
# [1] = dose: 60.0 mg/kg/injection, schedule: Q01DX005 (ip), vehicle: saline with Tween-80
# [2] = dose: 200.0 mg/kg/injection, schedule: Q01DX009 (ip), vehicle: saline with Tween-80
# [3] = dose: 120.0 mg/kg/injection, schedule: Q01DX005 (ip), vehicle: saline with Tween-80
# [4] = dose: 240.0 mg/kg/injection, schedule: Q01DX005 (ip), vehicle: saline with Tween-80
# [5] = dose: 25.0 mg/kg/injection, schedule: Q01DX005 (ip), vehicle: Klucel (hydroxypropylcellulose) (HPC)
# [6] = dose: 50.0 mg/kg/injection, schedule: Q01DX005 (ip), vehicle: Klucel (hydroxypropylcellulose) (HPC)
# [7] = dose: 100.0 mg/kg/injection, schedule: Q01DX005 (ip), vehicle: Klucel (hydroxypropylcellulose) (HPC)
# [8] = dose: 200.0 mg/kg/injection, schedule: Q01DX005 (ip), vehicle: Klucel (hydroxypropylcellulose) (HPC)
# [9] = dose: 60.0 mg/kg/injection, schedule: Q01DX005 (ip), vehicle: Klucel (hydroxypropylcellulose) (HPC)
# [10] = dose: 120.0 mg/kg/injection, schedule: Q01DX005 (ip), vehicle: Klucel (hydroxypropylcellulose) (HPC)
# [11] = dose: 240.0 mg/kg/injection, schedule: Q01DX005 (ip), vehicle: Klucel (hydroxypropylcellulose) (HPC)
# [12] = dose: 50.0 mg/kg/injection, schedule: Q01DX009 (ip), vehicle: saline
# [13] = dose: 100.0 mg/kg/injection, schedule: Q01DX009 (ip), vehicle: saline
smiles,measurement,setting,value
COc1cc(C2CC(C)(OC)Oc3cc4c(cc32)OCO4)cc(OC)c1O (configuration not stated),T/C,"dose: 15.0 mg/kg/injection, schedule: Q01DX005 (ip), vehicle: saline with Tween-80",90 % of control
same,T/C,"dose: 30.0 mg/kg/injection, schedule: Q01DX005 (ip), vehicle: saline with Tween-80",88 % of control
same,T/C,[1],89 % of control
COc1ccc2c(C(=O)O)cc3c4ccccc4ncc3c2c1,T/C,"dose: 12.5 mg/kg/injection, schedule: Q01DX009 (ip), vehicle: distilled water + Tween-80",100 % of control
same,T/C,"dose: 25.0 mg/kg/injection, schedule: Q01DX009 (ip), vehicle: distilled water + Tween-80",95 % of control
same,T/C,"dose: 50.0 mg/kg/injection, schedule: Q01DX009 (ip), vehicle: distilled water + Tween-80",98 % of control
same,T/C,"dose: 100.0 mg/kg/injection, schedule: Q01DX009 (ip), vehicle: distilled water + Tween-80",96 % of control
same,T/C,"dose: 200.0 mg/kg/injection, schedule: Q01DX009 (ip), vehicle: distilled water + Tween-80",99 % of control
Cc1[nH]c(NC(=O)C(=O)O)c(C#N)c1C,T/C,"dose: 50.0 mg/kg/injection, schedule: Q01DX009 (ip), vehicle: saline with Tween-80",106 % of control
same,T/C,[2],100 % of control
Cc1cccc(CC(O)c2ccc(C=O)cc2)n1 (configuration not stated),T/C,[1],105 % of control
same,T/C,[3],98 % of control
same,T/C,[4],98 % of control
CC(C)CC(NC(=O)C(N)Cc1ccc(N(CCCl)CCCl)cc1)C(=O)O (configuration not stated),T/C,"dose: 3.7 mg/kg/injection, schedule: Q04DX003 (ip), vehicle: saline with Tween-80",155 % of control and 172 % of control
same,T/C,"dose: 8.4 mg/kg/injection, schedule: Q04DX003 (ip), vehicle: saline with Tween-80",187 % of control and 203 % of control
same,T/C,"dose: 12.6 mg/kg/injection, schedule: Q04DX003 (ip), vehicle: saline with Tween-80",204 % of control and 272 % of control
same,T/C,"dose: 18.9 mg/kg/injection, schedule: Q04DX003 (ip), vehicle: saline with Tween-80",108 % of control and 118 % of control
same,T/C,"dose: 32.0 mg/kg/injection, schedule: Q04DX003 (ip), vehicle: saline with Tween-80",158 % of control
same,T/C,"dose: 42.6 mg/kg/injection, schedule: Q04DX003 (ip), vehicle: saline with Tween-80",179 % of control
same,T/C,"dose: 64.0 mg/kg/injection, schedule: Q04DX003 (ip), vehicle: saline with Tween-80",190 % of control and 198 % of control
same,T/C,"dose: 96.0 mg/kg/injection, schedule: Q04DX003 (ip), vehicle: saline with Tween-80",243 % of control
same,T/C,"dose: 128.0 mg/kg/injection, schedule: Q04DX003 (ip), vehicle: saline with Tween-80",88 % of control
COc1cc(C2c3cc4c(cc3OC(C)(O)C2C(C)=O)OCO4)cc(OC)c1OC (configuration not stated),T/C,[1],87 % of control
same,T/C,[3],94 % of control
same,T/C,[4],100 % of control
CCCCN(S(=O)(=O)c1ccc(C)cc1)S(=O)(=O)c1ccc(C)cc1,T/C,"dose: 100.0 mg/kg/injection, schedule: Q01DX009 (ip), vehicle: saline with Tween-80",120 % of control
same,T/C,[2],106 % of control
same,T/C,"dose: 400.0 mg/kg/injection, schedule: Q01DX009 (ip), vehicle: saline with Tween-80",87 % of control
CC(C)(C)c1ccnc(C(O)(C(F)(F)F)C(F)(F)F)c1,T/C,[5],93 % of control
same,T/C,[6],101 % of control
same,T/C,[7],108 % of control
same,T/C,[8],103 % of control
O=C1CCCCc2scc(C(=O)O)c2N1,T/C,"dose: 100.0 mg/kg/injection, schedule: Q04DX003 (ip), vehicle: Klucel (hydroxypropylcellulose) (HPC)",104 % of control
same,T/C,"dose: 200.0 mg/kg/injection, schedule: Q04DX003 (ip), vehicle: Klucel (hydroxypropylcellulose) (HPC)",111 % of control
same,T/C,"dose: 400.0 mg/kg/injection, schedule: Q04DX003 (ip), vehicle: Klucel (hydroxypropylcellulose) (HPC)",102 % of control
CCOC1CC(C)(O)C(C(=O)OC)c2cc3c(c(O)c21)C(=O)c1c(O)cc2c(c1C3=O)OC1OC2(C)C(O)C(N(C)C)C1O (configuration not stated),T/C,"dose: 3.16 mg/kg/injection, schedule: Q01DX009 (ip), vehicle: other",151 % of control
same,T/C,"dose: 6.25 mg/kg/injection, schedule: Q01DX009 (ip), vehicle: other",161 % of control
same,T/C,"dose: 12.5 mg/kg/injection, schedule: Q01DX009 (ip), vehicle: other",171 % of control
Cc1nn(C(N)=S)c(C)c1N=Nc1cc(Cl)ccc1Cl,T/C,"dose: 50.0 mg/kg/injection, schedule: Q01DX005 (ip), vehicle: saline with Tween-80",94 % of control
same,T/C,"dose: 100.0 mg/kg/injection, schedule: Q01DX005 (ip), vehicle: saline with Tween-80",86 % of control
same,T/C,"dose: 200.0 mg/kg/injection, schedule: Q01DX005 (ip), vehicle: saline with Tween-80",88 % of control
O=C(CN1CC1)NCCCCCCCCNC(=O)CN1CC1,T/C,"dose: 25.0 mg/kg/injection, schedule: Q04DX003 (ip), vehicle: saline with Tween-80",159 % of control
same,T/C,"dose: 33.0 mg/kg/injection, schedule: Q04DX003 (ip), vehicle: saline with Tween-80",200 % of control
same,T/C,"dose: 50.0 mg/kg/injection, schedule: Q04DX003 (ip), vehicle: saline with Tween-80",181 % of control and 209 % of control
Cc1nccc2cccc(CNC(C)C)c12,T/C,"dose: 100.0 mg/kg/injection, schedule: Q01DX001 (ip), vehicle: saline",103 % of control
same,T/C,"dose: 200.0 mg/kg/injection, schedule: Q01DX001 (ip), vehicle: saline",100 % of control
NC(=O)C1C2C=CC(C2)C1C(N)=O (configuration not stated),T/C,[9],97 % of control
same,T/C,[10],103 % of control
same,T/C,[11],97 % of control
COc1ccc(C2CC(c3ccccc3)=Nc3ccccc3S2)cc1 (configuration not stated),T/C,"dose: 50.0 mg/kg/injection, schedule: Q01DX009 (ip), vehicle: Klucel (hydroxypropylcellulose) (HPC)",101 % of control
same,T/C,"dose: 100.0 mg/kg/injection, schedule: Q01DX009 (ip), vehicle: Klucel (hydroxypropylcellulose) (HPC)",108 % of control
same,T/C,"dose: 200.0 mg/kg/injection, schedule: Q01DX009 (ip), vehicle: Klucel (hydroxypropylcellulose) (HPC)",108 % of control
CCC(c1ccc(OC(=O)Cc2ccc(N(CCCl)CCCl)cc2)cc1)C(CC)c1ccc(OC(=O)Cc2ccc(N(CCCl)CCCl)cc2)cc1 (configuration not stated),T/C,"dose: 80.0 mg/kg/injection, schedule: Q01DX009 (ip), vehicle: saline with Tween-80",92 % of control
same,T/C,"dose: 120.0 mg/kg/injection, schedule: Q01DX009 (ip), vehicle: saline with Tween-80",93 % of control
same,T/C,"dose: 180.0 mg/kg/injection, schedule: Q01DX009 (ip), vehicle: saline with Tween-80",89 % of control
same,T/C,"dose: 270.0 mg/kg/injection, schedule: Q01DX009 (ip), vehicle: saline with Tween-80",90 % of control
same,T/C,"dose: 405.0 mg/kg/injection, schedule: Q01DX009 (ip), vehicle: saline with Tween-80",92 % of control
CC1=C(/C=C/C(C)=C/C=C/C(C)=C/C=C2/CCOC2=O)C(C)(C)CCC1,T/C,"dose: 50.0 mg/kg/injection, schedule: Q01DX001 (ip), vehicle: saline with Tween-80",96 % of control
same,T/C,"dose: 100.0 mg/kg/injection, schedule: Q01DX001 (ip), vehicle: saline with Tween-80",96 % of control
same,T/C,"dose: 200.0 mg/kg/injection, schedule: Q01DX001 (ip), vehicle: saline with Tween-80",100 % of control
N#Cc1ccc(OC(=O)Nc2ccc(Br)cc2)cc1,T/C,[9],115 % of control
same,T/C,[10],114 % of control
same,T/C,[11],108 % of control
COC1(OC)OC(c2ccccc2)=C(c2ccccc2)C(C#N)(C#N)C1(OC)OC,T/C,[9],91 % of control
same,T/C,[10],88 % of control
same,T/C,[11],94 % of control
c1ccc2cc(SCCCN3CCOCC3)ccc2c1,T/C,"dose: 50.0 mg/kg/injection, schedule: Q01DX009 (ip), vehicle: saline sonified",100 % of control
same,T/C,"dose: 100.0 mg/kg/injection, schedule: Q01DX009 (ip), vehicle: saline sonified",104 % of control
same,T/C,"dose: 200.0 mg/kg/injection, schedule: Q01DX009 (ip), vehicle: saline sonified",100 % of control
NCCCNc1cc(O)cc2cccnc12,T/C,"dose: 50.0 mg/kg/injection, schedule: Q01DX005 (ip), vehicle: saline",93 % of control
same,T/C,"dose: 100.0 mg/kg/injection, schedule: Q01DX005 (ip), vehicle: saline",95 % of control
O[C@H]1CCN2CO[C@@H](c3ccccc3)C[C@H]2C1,T/C,"dose: 12.5 mg/kg/injection, schedule: Q01DX005 (ip), vehicle: Klucel (hydroxypropylcellulose) (HPC)",102 % of control
same,T/C,[5],103 % of control
same,T/C,[6],102 % of control
O=C1c2c(-c3ccccc3)ccc(-c3ccccc3)c2C2(O)OC1(O)c1c(-c3ccccc3)ccc(-c3ccccc3)c1C2=O,T/C,[6],94 % of control
same,T/C,[7],90 % of control
same,T/C,[8],92 % of control
COS(C)=O (configuration not stated),T/C,[12],99 % of control
same,T/C,[13],99 % of control
CCS(=O)(=O)C(C(O)C(O)C(O)C(C)O)S(=O)(=O)CC (configuration not stated),T/C,[12],100 % of control
same,T/C,[13],100 % of control
same,T/C,"dose: 200.0 mg/kg/injection, schedule: Q01DX009 (ip), vehicle: saline",96 % of control
